Here are results for 88 molecules from a melting point compilation (Tetko et al.; mined from patent text by program, amines drawn as free bases though some values may be those of a salt).

Each structure is given as a SMILES string.

One may read the melting point as the temperature, or range, at which the solid turns liquid. Molecule `C[C@H]1CN(c2cc3c(cc2F)c(=O)c(C(=O)O)cn3C2CC2)C[C@H]1N` (relative stereo) displayed a melting point of 268 to 270 °C. `CNC(=O)[C@@H]1C[C@@H](Oc2ccccc2)CN1S(=O)(=O)c1ccc(Cl)c(COc2cccc3c(-n4ccnc4)cc(C)nc23)c1Cl` yielded a melting point of 97 °C. With `COc1cc(Nc2nccc(Nc3ccc(O)cc3)n2)cc(OC)c1OC` the figure was 112 to 115 °C. With `CCCCCCCCCCCCCCCC1Cc2ccc(C(=O)O)cc2N1` (racemic) the figure was 119 to 122 °C; with `COc1cccc(CC(=O)O)c1OCCCc1cc(OC(C)C)nn1Cc1ccc(C(F)(F)F)cc1`, 116 to 117 °C. With `COc1ccncc1-c1ccc(OC2SCC(O)C(O)C2O)cn1` (stereo not drawn), the melting point turned out to be 207 °C. On to `COc1cccc(Oc2cccc(-c3ccccc3)c2)c1`, for which the melting point was in the range of 41 to 42 °C. With `O=[N+]([O-])c1cccc(C=CC=Cc2ccccc2)c1` the figure was 144 °C. As for `O=c1ccc(S(=O)(=O)c2cc3cc(Cl)cc(Cl)c3o2)n[nH]1`, the figure is 240 to 245 °C. With `COc1ccc(C2=NN(C3CCSCC3)C(=O)[C@H]3CC=CC[C@@H]23)cc1OC` (relative stereo) the figure was 140 to 141 °C; with `CN(C)C(N)=C(C#N)C#N`, 228 to 229 °C; with `CN(C)c1nc2sc3c(NCc4ccccn4)ncnc3c2c2c1COC(C)(C)C2`, 217 to 218 °C. For `c1ccc(N2c3ccccc3Sc3ccccc32)nc1`, the melting point lay in the range of 107 to 109 °C. With `COc1cncc(-c2cccc(OC3SCC(OC(C)=O)C(OC(C)=O)C3OC(C)=O)c2)c1` (stereo not drawn) the figure was 167 °C; with `CCCCN(CC)c1nc(C)nc2c1NC(=O)CN2c1ccc(C(C)C)cc1Br`, 146 to 147 °C. With `CC(=O)N(c1cccc(Br)c1)c1ncnc2ccc(N3C(=O)C=CC3=O)cc12` the figure was 174 to 175 °C; with `CCCn1c(=O)c2c(nc(C=Cc3cc(OC)c(OC)c(OC)c3S(N)(=O)=O)n2C)n(CCC)c1=O`, 243 to 245 °C; with `Cc1ccc(Oc2ccc(C=O)cc2)cn1`, 45 to 46 °C. With `COc1ccc2cc(-c3cc(=O)oc4cc(O)ccc34)ccc2c1` the figure was 223 to 225 °C. As to `CC(C)(O)Cn1c(Oc2ccc(-n3c4ncccc4n4ccnc34)cc2)nc2ccccc21`, the melting point is 208 to 211 °C. As for `O=C1c2ccccc2C(c2ccc(O)cc2)(c2ccc(O)cc2)c2ccccc21`, the figure is 320 to 322 °C. As for `Oc1ncnc2c(-c3ccc(Cc4ccccc4)cc3)cnn12`, the figure is 300 to 303 °C. `COc1cc(OC)cc(C(C)CCCc2ccncc2)c1` (stereo not drawn) yielded a melting point of 131 to 133 °C.

Turning to `CSc1ncc2c(Cl)cc(I)n2n1`, the melting point lay within 216 to 220 °C. As for `O=C1c2ccc(Cl)cc2C(O)N1CCO[N+](=O)[O-]` (stereo not drawn), the figure is 116 to 118 °C; as for `N#Cc1cnc2sc(Br)cc2c1O`, greater than 255 °C. With `CCCOc1ccc(C2=NN(C(=O)Nc3ccc(OC(F)(F)F)cc3)CC2N(C)C(=O)OC)cc1` (stereo not drawn) the figure was 153 to 155 °C; with `CC(C)(C)OC(=O)CN1CCN(c2ccnc(C#N)c2)C1=O`, 139 to 140 °C.

`OC(CCSC(=S)Nc1ccc(Cl)cn1)c1ccccc1` (stereo not drawn) registered a melting point of 91 °C.

For `CCCCCCCCCCCCCCCCCCOC(=O)CCc1cc(C)c(O)c(C(C)(C)C)c1`, the melting point lay in the range of 58 to 59 °C. With `CC1Sc2c(C(=O)O)c(=O)c3cc(F)c(N4CCC(N)C4)cc3n21` (stereo not drawn) the figure was 238 to 240 °C; with `Cn1ccc2c3c(c(C(=O)O)cc21)C(=O)NC3=O`, 313 to 318 °C.

Molecule `NC(=O)CNC(=O)c1cccc(-c2cccc3cc(Cc4cccc(C(F)(F)F)c4)sc23)c1F` returned a melting point of 135 to 136 °C. With `COC(=O)CCc1cc2cc(Cl)ccc2n1S(=O)(=O)c1cccc(C)c1` the figure was 105 to 108 °C; with `CCC(CC)(CC(=O)Nc1cccc(OCc2ccc3cc(C)ccc3n2)c1)C(=O)O`, 175 °C. As for `CC(=O)NC1CCC(Nc2ncc3c(N)cc(=O)n(CCCO)c3n2)CC1` (stereo not drawn), the figure is greater than 300 °C. Turning to `CCn1nc(Cl)c2ccn(-c3ccc(C)cc3C)c2c1=O`, the melting point was 94 to 95 °C.

`CC(C)(C)OC(=O)N(C(=N)N)C(=O)OC(C)(C)C` gave a melting point of 144 to 145 °C.

In turn, `O=C1NCc2cc(Br)sc21` gave a melting point of 96 to 97 °C. With `O=[N+]([O-])c1cc2c(NCc3ccc4c(c3)OCO4)nc(-n3ccnc3)nc2s1` the figure was 245 °C; with `CN(C)c1ccc(-c2cc(N(C(=O)OC(C)(C)C)C(=O)OC(C)(C)C)nn2C(=O)OC(C)(C)C)cc1`, 64 to 65 °C. As for `COc1ncccc1Nc1c(NC(NC(=O)c2cccc(Cl)c2)C(C)(C)C)c(=O)c1=O` (stereo not drawn), the figure is 208 to 210 °C; as for `COC(=O)c1ccc(-c2nn(-c3ccc(C(N)=O)cc3)c3ccccc23)cc1`, 267 to 269 °C; as for `N#CCC(=O)NCc1ccc(Cl)c(Cl)c1`, 144 to 145 °C.

`COc1c(C)cnc(CSc2nc3ncc(O)cc3[nH]2)c1C` had a melting point of 178 to 180 °C.

With `CC(O)COc1cccc([N+](=O)[O-])c1C#N` (stereo not drawn), the melting point was in the range of 121 to 124 °C.

Molecule `CN(CC(=O)C(Cc1ccccc1)NC(=O)c1ccccc1)C(=O)OCc1ccccc1` (stereo not drawn) registered a melting point of 140 to 141 °C. With `CCOc1cc(C(O)C(C)C)cc2c1OC(C)(C)C2` (stereo not drawn) the figure was 100 to 101 °C. With `CSc1nc(N)n(C(=O)c2ccc(Cl)cc2)n1` the figure was 175 to 177 °C. As for `CCc1cccc(Nc2ncnc3cc(OCCOC)c(OCCOC)cc23)c1`, the figure is 72 to 74 °C.

The molecule `CC(=O)Nc1ccc(C(=O)c2cc(-c3cccnc3)c(N3CCOCC3)s2)cc1` came in with a melting point of 120 °C. As for `N#Cc1cccc(C2=Nc3cc(O)c(-c4ccc(F)cc4)cc3NC(=O)C2)c1`, the figure is greater than 250 °C; as for `CC(=O)N(C#N)CCCCCCN(C#N)C(C)=O`, 59 to 61 °C; as for `CC(C)C[C@H](NC(=O)OCC1c2ccccc2-c2ccccc21)C(=O)N[C@H]1CCOC1=O`, 175 to 176 °C. With `O=C1OC[C@@H](c2ccccc2)N[C@H]1Cc1ccccc1` the figure was 75 to 76 °C; with `Cc1ccccc1C=Cc1ccccc1`, 92 to 93 °C. With `CCCCCCCCCCCCCCCCCC(=O)NCCO` the figure was 96 to 99 °C; with `NS(=O)(=O)C=C(c1ccccc1)c1ccccc1`, 134 to 135 °C; with `O=C1C2CC=C(SC3=CCC4C(=O)N(c5ccccc5)C(=O)C4C3)CC2C(=O)N1c1ccccc1` (stereo not drawn), 212 to 217 °C. The molecule `Cn1nc(C(F)(F)C(F)(F)F)c(C(F)(F)F)c1-n1cc(-c2ccc(Cl)c(C(=O)NC3CC3)c2)nn1` yielded a melting point of 150 to 152 °C. With `CCOC(=O)c1cnc2snc(C)c2c1N(Cc1cccnc1)S(=O)(=O)c1ccc(OC)cc1` the figure was 142 to 144 °C; with `CCCCOc1ccc(S(=O)(=O)NC(=O)c2ccc(C(=O)OC)nc2)cc1`, 174 to 176 °C. `COc1cc2nc(CO)c(CO)c(-c3ccnc(NN)c3)c2cc1OC` came in with a melting point of 225 to 227 °C.

`CCOC(=O)/C=C/c1cnn(C)c1` had a melting point of 43 to 44 °C.

In turn, `OCCOCc1nnc2n1-c1ccc(Cl)cc1C(c1ccccc1)=NC2` showed a melting point of 162 to 164 °C.

In turn, `CC(=O)Nn1c2c(c3ccccc31)Cc1ccccc1-2` displayed a melting point greater than 240 °C.

Regarding `O=C(NCCCCCCCNC(=O)c1ccc(OC2CCCC2)cc1)c1ccc(OC2CCCC2)cc1`, the melting point was in the range of 153 to 154 °C. With `CC1(C)COc2ccc(OC(F)(F)F)cc2C(O)(c2ccccn2)C1` (stereo not drawn) the figure was 76 °C; with `CN1CCN(c2ccc(/C=C/C(=O)CC(=O)/C=C/c3ccc4cc[nH]c4c3)cc2)CC1`, 65 to 77 °C. Consider `CCCCn1c(=O)c2c(ncn2S(=O)(=O)CCCC)n(CCCC)c1=O`, for which the melting point lay in the range of 55 to 57 °C.

In turn, `CS(=O)(=O)c1ccc(-c2oc(C(c3ccccc3)c3ccccc3)nc2-c2ccc(F)cc2)cc1` displayed a melting point of 155 to 156 °C. With `N#Cc1ccc(C(=O)O)c(Cl)c1` the figure was 154 to 158 °C; with `CCCc1nc2c(N)nc3ccccc3c2n1CCCC1(O)CCCCC1`, 200 to 202 °C; with `O=c1cc(-c2ccoc2)c2ccc(O)cc2o1`, 229 to 232 °C. With `CS(=O)(=O)c1ccc(Oc2ccc(Oc3ccccc3)cc2)nc1` the figure was 136 to 138 °C; with `COc1cccc2c1C(=O)c1c(OC)cc(CBr)cc1C2=O`, 176 to 178 °C. With `Cc1cc(OCCCNCCC(N)=O)ccc1Cc1c(OC2OC(CO)C(O)C(O)C2O)n[nH]c1C(C)C` (stereo not drawn) the figure was 191 to 193 °C; with `CCOC(=O)C(N)Cc1c(OCC)noc1C(=O)O` (racemic), 159 to 161 °C. Consider `Nc1c(C=O)c(=O)n(-c2ccccc2)c(=O)n1-c1ccccc1`, for which the melting point fell in the range of 141 to 142 °C.

As to `Cc1noc(NS(=O)(=O)c2ccccc2-c2ccc(-c3ncco3)cc2CN2CC(C)(C)CC2=O)c1C`, the melting point is 118 to 125 °C. Turning to `CCN(CC)CCN(CCN1CCCCC1)c1ccc(-c2nc3ccc(Cl)cc3[nH]2)cc1`, the melting point amounted to 156 °C.

In turn, `N#Cc1cccc(C2=Nc3ccc(-c4cccc(F)c4F)cc3NC(=O)C2)c1` had a melting point of 240 °C.

With `Oc1cc2[nH]c3ccccc3c2cc1O`, the melting point is 279 to 283 °C.

As to `CCN1C[C@@H](O)[C@H](N(C)C(=O)c2ccc([N+](=O)[O-])cc2)C1` (relative stereo), the melting point was 104 to 108 °C. Take `Cc1ccccc1-c1nnc(N2CCC(O)CC2)nc1-c1ccccc1C`: the melting point lay within 155 to 156 °C. For `Fc1ccc(-n2nc(N3CCNCC3)c3ccccc32)cc1`, the melting point was 85 to 87 °C.

As for `c1cc(Cn2ccnc2)c2nccnc2c1`, the melting point was found to be 121 °C. With `CCOC(=O)C(=CNc1cc(C)nn1-c1ccccc1)C(=O)OCC` the figure was 70 to 72 °C.
